The source of these data is paper PMC2671563 (PLoS Biology, 2009).

For assay [1], the target named is T1, human S100A9 binding to human TLR4/MD2 (Homo sapiens, UniProt P06702).
T1 construct: purchased R&D Systems (TLR4/MD-2 complex); S100A9 made in house
T1 sequence (P06702 1-114): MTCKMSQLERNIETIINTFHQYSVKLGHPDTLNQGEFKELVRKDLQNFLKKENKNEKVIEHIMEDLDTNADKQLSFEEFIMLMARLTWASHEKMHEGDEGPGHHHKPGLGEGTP
The assay can be described thus: SPR: inhibition of human S100A9 binding to immobilised human TLR4/MD2. On the procedure: (§1) The SPR analysis was carried out with the Biacore 3000 system (GE Healthcare). Sensor chips, amine coupling kit, immobilization and running buffers, and regeneration solutions were obtained from GE Healthcare. Working solutions of all reagents used for Biacore analysis were prepared in 0.01 M Hepes, 0.15 M NaCl (pH 7.4) containing 0.005% v/v Surfactant P-20 (HBS-P; GE Healthcare) by buffer exchange on Fast Protein Desalting Micro-Spin Columns from Pierce. ABR-215757 was immobilised onto a CM5 chip through an amino-linker (ABR-224649). […] Activity of ligands after immobilisation was tested by injecting specific antibodies (unpublished data). In some experiments, S100A9 was immobilized either by random amine coupling or with a known orientation (i.e., by sulhydryl group conjugation to the only cysteine in S100A9 at position 3).
(§2) Binding to the various surfaces was performed by injecting the analyte at a flow rate of 30 μl/min in a physiological buffer (HBS-P) containing 1 mM Ca^2+ and 10 μM Zn^2+ as proposed for S100A8/9 by Robinson et al.. A typical analysis cycle consists of: (1) pumping running buffer for 1 min to obtain a stable baseline; (2) injection of sample for an appropriate period of time (association); (3) pumping running buffer for 2.5 min (dissociation); (4) injection of a short pulse (30 s) of 15 μl 10 mM glycine-HCl (pH 2.0) (regeneration); and (5) pumping running buffer for 2 min (stabilisation after regeneration) at a flow rate of 30 μl/min. […] In one experiment, S100A9 was injected into a buffer with a fixed Ca^2+ concentration (1 mM) and Zn^2+ in the range 0–50 μM. In a second experiment, Ca^2+ was varied from 0–2 mM at a fixed Zn^2+ concentration (10 μM). In subsequent analyses, regeneration was carried out under more mild conditions, i.e., by injecting 30 μl of HBS-P containing 3 mM EDTA (HBS-EP; GE Healthcare) for 60 s, to prolong the lifespan of the chip.
(§3) Compounds were also injected over the immobilised surfaces in the absence of S100A9 to exclude, or make possible correction for, any direct binding of compound to the surface.
(§4) Evaluation was carried out using BIAevaluation Software version 3.2 (GE Healthcare). The response at steady-state was obtained by fit of sensorgrams to standard binding models, where appropriate, or calculated as responses at late association or early dissociation phase using the Steady state affinity function in BIAevaluation. Affinity was determined from kinetic analysis (on- and off-rates) or as the apparent affinity after plotting responses versus concentration of analyte in a saturation curve. In the inhibition assay format, the competitor concentration yielding 50% inhibition (IC50) was calculated by fitting data to a one-site competition model in GraphPad Prism.
Background: In SPR one partner is held on a chip, and binding of the other changes the refractive index at the surface.

Assay [2] addresses T2, hS100A9 (Homo sapiens, UniProt P06702).
T2 construct: made in house; host or cells: Escherichia coli (or purified from granulocytes)
T2 sequence (P06702 1-114): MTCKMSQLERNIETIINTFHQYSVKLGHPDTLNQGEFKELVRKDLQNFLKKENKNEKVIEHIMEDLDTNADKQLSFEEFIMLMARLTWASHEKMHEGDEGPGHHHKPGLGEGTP
The assay can be described thus: SPR: analytes injected over immobilised hS100A9. The class given is binding. As to the method: as §1
(B) Left: 100 nM TLR4/MD2 or MD2 injected over amino-coupled hS100A9. […] Fab 43/8 was injected at 50–200 nM to verify activity of immobilized hS100A9 (right). […] (482 KB PDF) Click here for additional data file.

The target in assay [3] is T3, mS100A9 and mLPS-Trap (Mus musculus, UniProt P31725).
T3 sequence (P31725 2-113 limits assumed): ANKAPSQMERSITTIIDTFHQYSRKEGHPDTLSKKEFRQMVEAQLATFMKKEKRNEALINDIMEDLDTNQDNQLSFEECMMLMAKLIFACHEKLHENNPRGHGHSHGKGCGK
The experiment in a line: SPR: inhibition of mouse S100A9 binding to immobilised mouse TLR4/MD2 fusion protein (mLPS-Trap). On the procedure: as §1, §2, §3, §4

In assay [4] the target is T4, mS100A9 (Mus musculus, UniProt P31725).
T4 construct: made in house; host or cells: Escherichia coli (or purified from granulocytes)
T4 sequence (P31725 1-113): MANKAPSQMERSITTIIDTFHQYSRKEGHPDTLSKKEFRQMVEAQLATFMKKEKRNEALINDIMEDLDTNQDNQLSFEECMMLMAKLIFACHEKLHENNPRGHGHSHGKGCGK
The experiment in a line: SPR: inhibition of mouse S100A9 binding to immobilised ABR-224649. Conditions: Table S1. As to the method: as §1, §2, §3, §4

The target of assay [5] is T5, mS100A8/A9 and mLPS-Trap (Mus musculus, UniProt P31725).
T5 sequence (P31725 2-113 limits assumed): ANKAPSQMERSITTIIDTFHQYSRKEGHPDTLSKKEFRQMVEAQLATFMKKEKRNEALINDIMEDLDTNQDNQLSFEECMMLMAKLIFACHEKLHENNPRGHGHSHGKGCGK
The assay can be described thus: SPR: inhibition of mouse S100A8/A9 binding to mLPS-Trap. As to conditions: Table S1; read-out: S100A8-9 binding IC50, mS100A8/A9 TLR4. On the procedure: as §1, §2, §3, §4

The target in assay [6] is T6, mS100A8/A9 and mRAGE (Mus musculus, UniProt P31725).
T6 construct: purchased R&D Systems (mRAGE/Fc); S100A8/A9 made in house
T6 sequence (P31725 2-113 limits assumed): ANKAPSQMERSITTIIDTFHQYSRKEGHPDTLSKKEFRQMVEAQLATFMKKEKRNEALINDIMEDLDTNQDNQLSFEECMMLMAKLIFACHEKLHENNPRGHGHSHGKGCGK
T6 sequence (P27005 2-89 partner limits assumed): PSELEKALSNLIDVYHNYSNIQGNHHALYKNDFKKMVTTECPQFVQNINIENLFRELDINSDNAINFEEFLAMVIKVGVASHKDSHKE
The assay can be described thus: SPR: inhibition of mouse S100A8/A9 binding to mouse RAGE. As to conditions: read-out: S100A8-9 binding IC50, mS100A8/A9 RAGE; Table S1. As to the method:
as §1, §2, §3, §4

Assay [7] has as its target T7, mS100A9 and mRAGE/hFc (Mus musculus, UniProt P31725).
T7 construct: purchased R&D Systems (mRAGE/Fc); S100A9 made in house
T7 sequence (P31725 2-113 limits assumed): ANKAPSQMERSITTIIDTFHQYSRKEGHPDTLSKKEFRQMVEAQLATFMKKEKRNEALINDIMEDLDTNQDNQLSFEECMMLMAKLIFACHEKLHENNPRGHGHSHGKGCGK
The assay can be described thus: SPR: inhibition of mouse S100A9 binding to immobilised mouse RAGE. As to conditions: read-out: S100A9 binding IC50, mS100A9 RAGE; Table S1. As to the method:
as §1, §2, §3, §4

The subject of assay [8] is aEAE development in SLJ/N mice. The experiment in a line: acute experimental autoimmune encephalomyelitis (aEAE) in mice. The class given is in vivo, mouse. The source says: A training set of five quinoline derivatives with structural diversification performed at position 5 of the quinoline ring system was used for the SAR. PCA was used to uncover any relationship between the binding activities of the quinoline derivatives at the S100 proteins and the inhibitory effect of these derivatives in the aEAE model. PLS was then used to model the relationship between the physiochemical descriptors used to characterize the compounds and their biological responses. […] All variables were mean centred and scaled to unit variance.

Assay [9] concerns the target T8, human S100A9 binding to human RAGE (Homo sapiens, UniProt P06702).
T8 construct: purchased R&D Systems (RAGE/Fc); S100A9 made in house
T8 sequence (P06702 1-114): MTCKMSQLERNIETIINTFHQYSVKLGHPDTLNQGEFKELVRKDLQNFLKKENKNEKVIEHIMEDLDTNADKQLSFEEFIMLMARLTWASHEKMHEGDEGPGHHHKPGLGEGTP
The assay can be described thus: SPR: inhibition of human S100A9 binding to immobilised human RAGE. Conditions: read-out: S100A9 binding IC50, hS100A9 RAGE; Table S1. As to the method:
as §1, §2, §3, §4

In assay [10] the target is T9, human TLR4/MD-2 complex (human, UniProt O00206 24-631; Q9Y6Y9 19-160).
T9 construct: Toll-like receptor 4, human; MD-2, human; Soluble recombinant complex; also called hTLR4/MD-2; hTLR4/MD2; source: bought: R&D Systems (carrier-free recombinant)
T9 sequence (O00206 24-631, chain 1 of 2): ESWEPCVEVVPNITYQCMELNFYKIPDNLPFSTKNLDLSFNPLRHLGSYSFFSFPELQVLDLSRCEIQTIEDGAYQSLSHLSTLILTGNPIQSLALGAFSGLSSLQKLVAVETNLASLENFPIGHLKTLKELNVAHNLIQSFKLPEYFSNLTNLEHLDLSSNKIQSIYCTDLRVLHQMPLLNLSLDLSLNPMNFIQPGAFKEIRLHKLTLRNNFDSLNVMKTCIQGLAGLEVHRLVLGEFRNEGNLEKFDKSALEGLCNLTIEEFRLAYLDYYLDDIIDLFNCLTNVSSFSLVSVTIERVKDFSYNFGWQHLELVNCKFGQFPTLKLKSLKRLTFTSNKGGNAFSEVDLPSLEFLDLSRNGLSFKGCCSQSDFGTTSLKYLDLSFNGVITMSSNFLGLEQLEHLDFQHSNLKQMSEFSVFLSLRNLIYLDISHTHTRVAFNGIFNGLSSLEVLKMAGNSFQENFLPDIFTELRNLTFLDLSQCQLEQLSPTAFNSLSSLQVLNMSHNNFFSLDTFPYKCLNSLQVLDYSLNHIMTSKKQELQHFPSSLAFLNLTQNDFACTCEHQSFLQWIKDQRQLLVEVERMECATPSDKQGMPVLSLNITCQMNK
T9 sequence (Q9Y6Y9 19-160, chain 2 of 2): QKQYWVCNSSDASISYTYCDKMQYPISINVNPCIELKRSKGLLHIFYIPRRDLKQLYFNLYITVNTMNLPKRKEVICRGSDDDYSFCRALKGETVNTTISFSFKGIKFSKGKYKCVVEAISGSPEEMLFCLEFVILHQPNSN
The experiment in a line: SPR; S100 proteins injected (100 nM, or a range of concentrations; 30 ul/min) over human TLR4/MD2 immobilised by amine coupling (~3,000 RU); HBS-P pH 7.4 with 1 mM Ca2+ and 10 uM Zn2+; fit to a 1:1 model with mass transfer; half-maximal binding from responses at late association (apparent). As to conditions: both partners purified.

For assay [11], the target named is T10, recombinant human RAGE/Fc (human, UniProt Q15109 23-342).
T10 construct: RAGE (receptor for advanced glycation end products), human; human IgG1 Fc was used as the control for the Fc part; also called hRAGE; rhRAGE/Fc; source: bought: R&D Systems (carrier-free recombinant)
T10 sequence (Q15109 23-342): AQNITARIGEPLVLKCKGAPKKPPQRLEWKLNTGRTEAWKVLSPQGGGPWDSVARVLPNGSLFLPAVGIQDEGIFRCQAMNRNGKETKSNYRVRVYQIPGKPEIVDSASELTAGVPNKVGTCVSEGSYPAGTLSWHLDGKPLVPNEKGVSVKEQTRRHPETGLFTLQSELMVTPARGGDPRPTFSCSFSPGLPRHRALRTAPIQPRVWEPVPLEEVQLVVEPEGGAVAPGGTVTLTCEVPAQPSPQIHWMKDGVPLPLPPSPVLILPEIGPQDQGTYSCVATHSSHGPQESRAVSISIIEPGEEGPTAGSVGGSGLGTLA
The experiment in a line: SPR; S100 proteins injected (100 nM, or a range of concentrations; 30 ul/min) over human RAGE/Fc immobilised by amine coupling (~3,000 RU); HBS-P pH 7.4 with 1 mM Ca2+ and 10 uM Zn2+; fit to a 1:1 model with mass transfer; half-maximal binding from responses at late association (apparent). Conditions: both partners purified.

Assay [12] has as its target T11, mouse RAGE/Fc (mouse, UniProt Q62151-1 23-340).
T11 construct: RAGE, mouse; also called mRAGE; mRAGE/hFc; source: bought: R&D Systems (carrier-free recombinant)
The assay can be described thus: SPR; 50 and 100 nM mouse S100A9, or 100 nM mouse S100A8/A9, injected (3 min at 30 ul/min) over mouse RAGE/Fc or mLPS-Trap coupled to the sensor chip. Conditions: both partners purified.

T11 sequence (Q62151 23-340): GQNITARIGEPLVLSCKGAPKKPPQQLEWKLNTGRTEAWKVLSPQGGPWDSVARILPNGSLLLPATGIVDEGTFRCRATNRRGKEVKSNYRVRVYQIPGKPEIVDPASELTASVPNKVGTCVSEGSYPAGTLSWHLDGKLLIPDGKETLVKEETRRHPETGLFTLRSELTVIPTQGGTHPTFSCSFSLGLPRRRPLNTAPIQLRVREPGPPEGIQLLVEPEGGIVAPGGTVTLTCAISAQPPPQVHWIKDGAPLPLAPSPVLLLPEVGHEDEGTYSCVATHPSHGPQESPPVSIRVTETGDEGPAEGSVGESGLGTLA

Turning to rhMD-2: recombinant human MD-2, in assay [1] (200 and 400 nM, unpublished data), the “displacement of S100A9 binding to immobilised hTLR4/MD2” value is “No displacement”. In addition, in assay [2], the “binding to immobilised S100A9” value is “did not”.
Turning to “lipopolysaccharide [LPS, reference compound]”, the “effect on hS100A9 binding to immobilised hTLR4/MD2” value in assay [1] (200 ng/ml) is on record as “no effect”. For the same molecule, the “effect on mS100A9 binding to immobilised mLPS-Trap” value in [3] is given as “no effect”.
On to `CCN(C(=O)c1c(O)c2ccccc2n(C)c1=O)c1ccccc1` [ABR-212662], for which the IC50 in assay [4] stood at 1940 µM; in assay [5], 576 µM; in assay [6], 720 µM; in [1] (Table S1, read-out: S100A9 binding IC50, hS100A9 TLR4) it was 415 µM; in assay [7], 1030 µM; in assay [3] (Table S1), 1970 µM. Besides, the IC50 in assay [9] came to 436 µM. In assay [8], the “aEAE Inhibition ED50” value is 1.87 mg/kg.

B1: human S100A8/A9 heterodimer (complex)
chain 1: MLTELEKALNSIIDVYHKYSLIKGNFHAVYRDDLKKLLETECPQYIRKKGADVWFKELDINTDGAVNFQEFLILVIKMGVAAHKKSHEESHKE
chain 2: MTCKMSQLERNIETIINTFHQYSVKLGHPDTLNQGEFKELVRKDLQNFLKKENKNEKVIEHIMEDLDTNADKQLSFEEFIMLMARLTWASHEKMHEGDEGPGHHHKPGLGEGTP
notes: S100A8, human; S100A9, human; also called hS100A8/9; S100A8/A9 complex; source: either produced recombinantly in Escherichia coli or purified from granulocytes
B1: the results for the Kd in [10] and in assay [11] were 0.0038 µM and 0.0094 µM, respectively.

B2: mouse S100A9 (natural protein, UniProt P31725 1-113, looked up)
chain: MANKAPSQMERSITTIIDTFHQYSRKEGHPDTLSKKEFRQMVEAQLATFMKKEKRNEALINDIMEDLDTNQDNQLSFEECMMLMAKLIFACHEKLHENNPRGHGHSHGKGCGK
notes: S100A9, mouse; called homodimeric; also called mS100A9; murine S100A9; source: either produced recombinantly in Escherichia coli or purified from granulocytes
Turning to B2, the binding result in assay [12] is “binds”.

B3: mouse S100A8/A9 heterodimer (complex)
chain 1: MPSELEKALSNLIDVYHNYSNIQGNHHALYKNDFKKMVTTECPQFVQNINIENLFRELDINSDNAINFEEFLAMVIKVGVASHKDSHKE
chain 2: MANKAPSQMERSITTIIDTFHQYSRKEGHPDTLSKKEFRQMVEAQLATFMKKEKRNEALINDIMEDLDTNQDNQLSFEECMMLMAKLIFACHEKLHENNPRGHGHSHGKGCGK
notes: S100A8, mouse; S100A9, mouse; also called mS100A8/A9; murine S100A8/A9; source: either produced recombinantly in Escherichia coli or purified from granulocytes
B3: the binding result in assay [12] is recorded as “binds”.
